In one data set the test system is carrot. In words: Phytotoxicity of foliar spray in uninfected carrot (Example 1). The class given is in vivo, Daucus carota. The following applies: 500 μM foliar spray, 8 plants per treatment. The procedure:
Carrot seeds, cv. Nantes 2 (Vreeken's Zaden, Dordrecht, the Netherlands) were germinated on wet paper for seven days at 21° C. After germination, seedlings were transferred to individual pots filled with potting soil and placed in a growth chamber at 21° C.
Unless otherwise mentioned, all chemicals for nematode experiments were applied as a foliar spray consisting of the target compound at a concentration of 300 μM together with 0.1% (v/v) Tween 20 surfactant (Calbiochem) in distilled water. Again unless otherwise mentioned, all treatments for the nematode experiments were carried out three times: one and eight days before pathogen inoculation and seven days after pathogen inoculation. In all cases, plants were sprayed until run-off with an atomizer.
Short-term phytotoxicity experiments (Example 1) were analyzed using non-parametric methods. For each variable, overall significance was determined using the Kruskal-Wallis test (Kruskal and Wallis, 1952), followed by a posthoc Conover-Iman test (Conover and Iman, 1981) with Hommel multiplicity correction (Hommel, 1988) if the Kruskal-Wallis test was significant. When only two groups were present, the Wilcoxon-Mann-Whitney test was used (Mann and Whitney, 1947).
To test whether C4H inhibitors induce phytotoxic effects in crops, uninfected tomato, wheat and carrot were treated with piperonylic acid (PA), 4-iodobenzoic acid (4-IBA) and piperic acid (PIA) at a concentration of 500 μM through foliar application. At harvest, leaf area (or shoot length in the case of wheat) and primary root length were recorded. The BBCH developmental stage (Lancashire et al., 1991), a measure of developmental retardation, was used to test for effects on development. Finally, the presence of visible signs of phytotoxicity such as chlorosis, discoloration or necrosis was recorded.

In data set [1] the test system is J2 juveniles of Meloidogyne graminicola. In words: In vitro nematode toxicity assay, M. graminicola J2 (Example 11). Conditions: Vertimec 0.02 v/v % abamectin. The method, then:
(§1) J2 juveniles of Meloidogyne graminicola and Heterodera schachtii were isolated from Echinocloa cruss-galli roots and sugar beet roots respectively. Per treatment and species combination, 300 nematodes were isolated and divided over six wells that contained 1.5 ml of either sterilized tap water, a 100 μM C4H inhibitor solution or a 0.02 v/v % solution of the nematicide abamectin (Vertimec®, Syngenta AG). The nematodes were incubated in the dark on a slow-moving rotary shaker (50 rpm) and the number of living nematodes was counted regularly using a binocular microscope.
(§2) To rule out definitively that the compounds of the invention operate through direct toxicity to nematodes, an in vitro toxicity assay on J2 juveniles of the nematodes Meloidogyne graminicola and Heterodera schachtii was performed.
(§3) First, survival upon exposure to the C4H inhibitor piperonylic acid (PA) was compared to a negative control (tap water) and a positive control, the commercial nematicide Vertimec (0.02% Abamectin). A detailed survival curve is shown in FIG. 12a (M. graminicola) and FIG. 12b (H. schachtii).
In a second experiment, a broader range of C4H inhibitors were assayed in the same manner. The toxicity of piperonylic acid (PA), piperine (PIP), 4-propynyloxybenzoic acid (4PB), and 3-(4-pyridyl)acrylic acid (3PA) to J2 juveniles of Meloidogyne graminicola was compared to a negative control (tap water) and a true nematicide (Vertimec, active ingredient abamectin).

In data set [2] the test system is J2 juveniles of Heterodera schachtii. In words: In vitro nematode toxicity assay, H. schachtii J2 (Example 11). The following applies: PA 100 μM, Vertimec 0.02 v/v % abamectin, control 83.1±7.6. The procedure: as §1, §2, §3
The subject of a further data set is OsGNS5. In words: qRT-PCR in rice roots, OsGNS5 (Example 20). It counts as in vivo, Oryza sativa. Conditions: rice cv. Bomba root tissue; same samples as Example 19. The procedure:
After quality control, qPCR was carried out.
To test whether other defense hormones might be involved, genes responsive to jasmonic acid (the biosynthesis gene OsAOS2) and auxin (the auxin conjugating enzyme OsGH3.1) were investigated. Moreover, the callose-degrading enzyme OsGNS5, downregulation of which is associated with basal defense, was also investigated. The qRT-PCR analysis was performed on the same samples used in the previous Example.

Data set [3] deals with Pseudomonas syringae DC3000. In words: Pseudomonas syringae toxicity experiment in liquid culture (Example 21). The class given is cell-based. The following applies: 100 μM, twenty-four hours of continuous exposure. The procedure:
A glycerol stock of P. syringae pv. DC3000 kept at−80° C. was spotted on petri dishes containing King's B agar amended with 75 μg/ml rifampicine (Duchefa Biochemie, Haarlem, the Netherlands). The plates were incubated in the dark at 28° C. for one week. At this time point, glass test tubes containing 5 ml of liquid King's B each (without rifampicin) were inoculated with cells from the plates and placed on an orbital shaker at 200 rpm for 24 hours at 28° C. 100 μl of this liquid inoculum was transferred to fresh glass test tubes containing 5 ml of liquid King's B each (without rifampicin) amended either with 100 μM of PA or a corresponding control, which were placed on an orbital shaker at 200 rpm for 24 hours at 28° C. At this time point, the cells were diluted ten-fold with liquid King's B medium and the OD600 of the resulting suspension was determined using a spectrophotometer (BioRad SmartSpec Plus), with sterile King's B as a blanc.
Prior to inoculation, the effect of piperonylic acid on Pseudomonas syringae DC3000 itself was also verified by growing the bacteria on liquid culture amended with piperonylic acid or a corresponding control and measuring the OD600 (as described in the materials and methods section).

The structures appear in SMILES notation.

This note sets out measurements from patent US11992011B2, “Compounds for controlling plant pathogens” (VIB VZW, priority 2017, dated 2024).

In the case of `O=C(O)c1ccc2c(c1)OCO2` [PA, Piperonylic acid], the “Leaf Area” value with carrot (mean ± standard deviation) was 6.07 ± 2.12 cm^2. In addition, the BBCH stage in the data set with carrot (median ± interquartile range) amounted to 13 ± 0. The “survival after 24 hours of exposure” value was found to be 97.1±1.8% in data set [1] (PA 100 μM, control 94.2±2.4) and 92.8±2.5% in data set [2]. Besides, in data set [1] (second experiment, C4H inhibitor 100 μM, water control 93%), the “survival at the end of the experiment” value stood at 95%. Also, in the data set on OsGNS5, the “Fold change vs. control, OsGNS5 expression” value came to 0.41. Further, in data set [3], the “effect on bacterial growth” value was “no effect on bacterial growth”. In data set [3] (ten-fold diluted culture, printed 0.737 vs. 0.757), this molecule registered an OD600 of 0.737.
